Laboratory results: patent publication US20230210825A1, “METHODS AND COMPOSITIONS FOR TREATING SUBJECTS WITH METABOLIC DISORDERS AND CORONAVIRUS INFECTIONS” (CIRIUS THERAPEUTICS, INC., priority 2020, published 2023)

Test system: mice fed a diet enriched in trans fat, cholesterol and fructose
Test: Trans fat, cholesterol and fructose diet for 19 weeks: hepatic damage and fibrosis
Format: in vivo
Experimental: Mice were fed a diet enriched in trans fat, cholesterol and fructose for 19 weeks to induce hepatic damage and metabolic dysfunction, which was assessed by histological changes in the NAS and fibrosis, measured by trichrome staining for collagen. MSDC-0602K (30 mg/kg) was given at either four weeks into the treatment or 16 weeks into the treatment as compared to the vehicle treated mice who were also on the modified diet. The results of mice who were kept on the normal diet are included for comparison. […] The signals for activation of the stellate cells and fibrosis are attenuated by treatment of the mice or isolated hepatocytes with MSDC-0602K.

COc1cccc(C(=O)COc2ccc(CC3SC(=O)NC3=O)cc2)c1 (centres unmarked) [MSDC-0602K]
signals for activation of the stellate cells and fibrosis (30 mg/kg from week 4 or week 16 of a 19-week diet, mice or isolated hepatocytes): attenuated | high fat, high cholesterol, high sugar diet-induced metabolic dysfunction (multiple animal models): protect against
